Test results as given in patent publication US8173813B2, “Quinolone and tetrahydroquinolone and related compounds having NOS inhibitory activity” (NeurAxon, Inc., priority 2007, dated 2012).
Read-outs that look alike come from different tables or passages of the source.

How the values were obtained:
Type in all cases: biochemical
[1] = target: Nitric oxide synthase (endothelial, human recombinant) eNOS (Homo sapiens, UniProt P29474); test: Human eNOS enzyme assay ([3H]L-arginine to [3H]L-citrulline)
Sequence of Nitric oxide synthase (endothelial, human recombinant) eNOS (P29474 2-1203): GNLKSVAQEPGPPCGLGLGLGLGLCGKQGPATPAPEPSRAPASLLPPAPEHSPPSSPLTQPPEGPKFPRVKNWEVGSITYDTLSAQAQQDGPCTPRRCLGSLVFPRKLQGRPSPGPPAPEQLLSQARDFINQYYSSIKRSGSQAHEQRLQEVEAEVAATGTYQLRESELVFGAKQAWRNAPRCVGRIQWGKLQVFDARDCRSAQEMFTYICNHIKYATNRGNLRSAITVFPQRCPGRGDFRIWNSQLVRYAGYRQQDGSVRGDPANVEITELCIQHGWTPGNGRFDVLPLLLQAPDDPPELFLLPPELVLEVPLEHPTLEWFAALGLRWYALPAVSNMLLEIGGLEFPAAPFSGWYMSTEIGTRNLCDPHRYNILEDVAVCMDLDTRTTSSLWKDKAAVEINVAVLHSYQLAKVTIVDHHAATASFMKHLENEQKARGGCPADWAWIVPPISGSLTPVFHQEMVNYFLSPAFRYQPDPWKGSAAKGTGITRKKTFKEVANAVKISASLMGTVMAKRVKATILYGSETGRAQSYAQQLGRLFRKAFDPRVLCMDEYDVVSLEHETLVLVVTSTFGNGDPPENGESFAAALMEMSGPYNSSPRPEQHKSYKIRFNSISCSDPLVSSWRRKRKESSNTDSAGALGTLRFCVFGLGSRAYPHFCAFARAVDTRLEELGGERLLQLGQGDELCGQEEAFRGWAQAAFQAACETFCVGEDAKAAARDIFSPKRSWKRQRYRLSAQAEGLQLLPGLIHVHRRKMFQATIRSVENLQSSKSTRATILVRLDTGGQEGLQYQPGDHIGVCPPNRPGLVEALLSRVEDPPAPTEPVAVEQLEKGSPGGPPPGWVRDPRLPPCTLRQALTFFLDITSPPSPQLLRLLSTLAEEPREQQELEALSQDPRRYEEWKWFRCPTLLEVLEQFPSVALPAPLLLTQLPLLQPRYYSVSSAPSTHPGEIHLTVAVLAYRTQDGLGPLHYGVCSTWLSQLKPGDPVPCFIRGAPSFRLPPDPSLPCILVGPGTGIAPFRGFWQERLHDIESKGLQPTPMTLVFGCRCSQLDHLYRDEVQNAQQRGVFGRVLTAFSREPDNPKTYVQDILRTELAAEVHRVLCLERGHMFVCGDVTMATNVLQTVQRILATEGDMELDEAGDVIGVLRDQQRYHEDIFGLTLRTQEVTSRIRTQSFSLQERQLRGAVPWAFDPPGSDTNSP

[2] = target: Recombinant human inducible NOS (iNOS) (Homo sapiens, UniProt P35228); test: Human iNOS enzyme assay, radiometric
Sequence of Recombinant human inducible NOS (iNOS) (P35228 whole entry): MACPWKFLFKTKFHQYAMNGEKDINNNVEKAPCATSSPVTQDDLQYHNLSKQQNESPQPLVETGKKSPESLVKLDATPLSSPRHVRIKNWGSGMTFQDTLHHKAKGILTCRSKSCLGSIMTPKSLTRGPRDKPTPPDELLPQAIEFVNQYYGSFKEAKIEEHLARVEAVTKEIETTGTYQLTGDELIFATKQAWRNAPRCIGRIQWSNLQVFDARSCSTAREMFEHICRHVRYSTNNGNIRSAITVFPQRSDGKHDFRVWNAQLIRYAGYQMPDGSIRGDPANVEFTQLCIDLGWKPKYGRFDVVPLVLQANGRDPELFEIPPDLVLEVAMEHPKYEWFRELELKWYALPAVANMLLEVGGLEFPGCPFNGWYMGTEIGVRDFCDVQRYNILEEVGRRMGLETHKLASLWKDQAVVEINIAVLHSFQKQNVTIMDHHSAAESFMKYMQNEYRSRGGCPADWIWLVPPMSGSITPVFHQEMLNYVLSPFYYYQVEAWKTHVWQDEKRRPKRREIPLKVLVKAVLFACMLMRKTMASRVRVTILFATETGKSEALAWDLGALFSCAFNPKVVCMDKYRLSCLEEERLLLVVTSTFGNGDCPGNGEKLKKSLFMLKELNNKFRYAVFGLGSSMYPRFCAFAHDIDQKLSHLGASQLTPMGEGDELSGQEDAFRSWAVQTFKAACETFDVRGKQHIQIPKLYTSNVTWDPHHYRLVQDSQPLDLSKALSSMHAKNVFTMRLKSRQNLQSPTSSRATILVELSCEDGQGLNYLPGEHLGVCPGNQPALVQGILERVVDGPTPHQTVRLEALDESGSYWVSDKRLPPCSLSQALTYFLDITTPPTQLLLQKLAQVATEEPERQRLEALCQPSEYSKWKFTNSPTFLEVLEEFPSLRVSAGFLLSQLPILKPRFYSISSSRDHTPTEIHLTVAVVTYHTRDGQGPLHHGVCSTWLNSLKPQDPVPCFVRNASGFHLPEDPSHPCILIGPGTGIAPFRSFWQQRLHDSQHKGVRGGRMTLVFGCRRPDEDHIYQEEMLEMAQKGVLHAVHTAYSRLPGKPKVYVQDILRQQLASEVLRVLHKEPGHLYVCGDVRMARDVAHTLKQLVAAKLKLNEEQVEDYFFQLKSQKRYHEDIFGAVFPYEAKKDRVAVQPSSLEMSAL

[3] = target: Nitric oxide synthase (neuronal, human recombinant) nNOS (Homo sapiens, UniProt P29475); test: Human nNOS enzyme assay ([3H]L-arginine to [3H]L-citrulline)
Sequence of Nitric oxide synthase (neuronal, human recombinant) nNOS (P29475 whole entry): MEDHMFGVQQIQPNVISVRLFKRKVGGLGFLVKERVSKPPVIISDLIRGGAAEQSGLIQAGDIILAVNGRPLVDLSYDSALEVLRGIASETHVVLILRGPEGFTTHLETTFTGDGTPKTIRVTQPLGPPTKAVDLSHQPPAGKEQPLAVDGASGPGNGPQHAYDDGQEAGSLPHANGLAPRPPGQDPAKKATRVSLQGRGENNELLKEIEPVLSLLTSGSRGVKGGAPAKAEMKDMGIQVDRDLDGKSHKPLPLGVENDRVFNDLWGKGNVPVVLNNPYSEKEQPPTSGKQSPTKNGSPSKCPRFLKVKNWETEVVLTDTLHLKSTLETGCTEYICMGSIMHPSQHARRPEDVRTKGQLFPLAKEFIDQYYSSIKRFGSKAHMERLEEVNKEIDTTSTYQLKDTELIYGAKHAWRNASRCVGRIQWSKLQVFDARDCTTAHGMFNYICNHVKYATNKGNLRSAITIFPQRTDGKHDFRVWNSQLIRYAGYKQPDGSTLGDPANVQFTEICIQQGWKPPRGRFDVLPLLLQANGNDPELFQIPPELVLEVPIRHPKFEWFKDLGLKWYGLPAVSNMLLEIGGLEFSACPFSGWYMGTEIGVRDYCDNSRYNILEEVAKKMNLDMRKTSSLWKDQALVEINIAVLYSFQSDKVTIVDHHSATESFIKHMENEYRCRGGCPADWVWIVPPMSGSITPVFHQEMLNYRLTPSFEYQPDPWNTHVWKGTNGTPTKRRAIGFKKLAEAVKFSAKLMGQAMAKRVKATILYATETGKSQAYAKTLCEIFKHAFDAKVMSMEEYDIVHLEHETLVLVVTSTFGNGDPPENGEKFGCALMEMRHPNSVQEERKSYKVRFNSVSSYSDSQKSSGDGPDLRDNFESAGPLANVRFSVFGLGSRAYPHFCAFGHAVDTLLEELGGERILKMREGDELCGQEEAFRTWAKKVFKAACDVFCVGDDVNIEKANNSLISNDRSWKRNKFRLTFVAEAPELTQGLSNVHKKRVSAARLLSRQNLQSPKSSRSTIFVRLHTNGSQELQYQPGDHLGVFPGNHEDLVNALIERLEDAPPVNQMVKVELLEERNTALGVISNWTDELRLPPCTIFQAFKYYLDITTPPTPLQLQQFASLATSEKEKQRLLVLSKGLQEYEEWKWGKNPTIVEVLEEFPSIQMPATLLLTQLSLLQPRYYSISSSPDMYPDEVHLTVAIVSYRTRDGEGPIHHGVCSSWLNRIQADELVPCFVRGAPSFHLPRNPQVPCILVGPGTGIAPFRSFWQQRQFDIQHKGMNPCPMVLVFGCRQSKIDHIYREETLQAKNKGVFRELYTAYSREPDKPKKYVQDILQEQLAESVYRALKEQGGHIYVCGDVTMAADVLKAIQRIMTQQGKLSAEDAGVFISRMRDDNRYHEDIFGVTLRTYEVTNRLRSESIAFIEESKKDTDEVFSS

[4] = human recombinant iNOS, values without parentheses, read-out: hiNOS IC50
[5] = human recombinant eNOS, values without parentheses, read-out: heNOS IC50
[6] = human recombinant nNOS, values without parentheses, read-out: hnNOS IC50
[7] = human enzymes, ratio of eNOS IC50 to nNOS IC50

Compound | IC50 [2, 4] | IC50 [1, 5] | IC50 [3, 6] | Selectivity eNOS/nNOS [3, 7] | further results
CCN(CC)CCN1C(=O)CCc2cc(NC(=N)c3cccs3)ccc21 [Example 2, N-(1-(2-(diethylamino)ethyl)-2-oxo-1,2,3,4-tetrahydroquinolin-6-yl)thiophene-2-carboximidamide] | 22 µM |  |  |  | IC50 ([1]; read-out: heNOS IC50): 73.6 µM; IC50 ([3]; read-out: hnNOS IC50): 2.21 µM
N=C(Nc1ccc2c(c1)CCC(=O)N2CCCN1CCOCC1)c1cccs1 [Example 5, N-(1-(3-morpholinopropyl)-2-oxo-1,2,3,4-tetrahydroquinolin-6-yl)thiophene-2-carboximidamide] |  | 105 µM | 5.46 µM |  | Selectivity eNOS/nNOS [3]: 19.2
N=C(Nc1ccc2c(c1)CCC(=O)N2CCN1CCCC1)c1cccs1 [Example 6, N-(2-oxo-1-(2-(pyrrolidin-1-yl)ethyl)-1,2,3,4-tetrahydroquinolin-6-yl)thiophene-2-carboximidamide] | > 100 µM |  | 0.165 µM |  | IC50 ([1]; read-out: heNOS IC50): 29.8 µM
CCN(CC)CCCN1C(=O)CCc2cc(NC(=N)c3cccs3)ccc21 [Example 7, N-(1-(3-(diethylamino)propyl)-2-oxo-1,2,3,4-tetrahydroquinolin-6-yl)thiophene-2-carboximidamide] | > 100 µM | 13.9 µM | 0.869 µM |  | Selectivity eNOS/nNOS [3]: 16
N=C(Nc1ccc2c(c1)CCC(=O)N2CCCN1CCCC1)c1cccs1 [Example 8, N-(1-(3-(pyrrolidin-1-yl)propyl)-2-oxo-1,2,3,4-tetrahydroquinolin-6-yl)thiophene-2-carboximidamide] |  |  |  |  | IC50 ([1]; read-out: heNOS IC50): 24.5 µM
N=C(Nc1ccc2c(c1)CCC(=O)N2CCCN1CCCCC1)c1cccs1 [Example 9, N-(1-(3-(piperidin-1-yl)propyl)-2-oxo-1,2,3,4-tetrahydroquinolin-6-yl)thiophene-2-carboximidamide] |  | 10.2 µM | 0.798 µM | 12.8 | 
CN(C)CCCC1Cc2cc(NC(=N)c3cccs3)ccc2NC1=O.Cl.Cl (stereo not drawn) [Example 10, N-(3-(3-(dimethylamino)propyl)-2-oxo-1,2,3,4-tetrahydroquinolin-6-yl)thiophene-2-carboximidamide dihydrochloride] | > 100 µM | 10.8 µM | 0.198 µM | 54.5 | 
CN1CCCC1CCN1C(=O)CCc2cc(NC(=N)c3cccs3)ccc21 (stereo not drawn) [Example 13, N-(1-(2-(1-methylpyrrolidin-2-yl)ethyl)-2-oxo-1,2,3,4-tetrahydroquinolin-6-yl)thiophene-2-carboximidamide] |  | 68.9 µM | 1.1 µM | 62.6 | 
CC(CN1C(=O)CCc2cc(NC(=N)c3cccs3)ccc21)N1CCCC1 (stereo not drawn) [Example 15, N-(2-oxo-1-(2-(pyrrolidin-1-yl)propyl)-1,2,3,4-tetrahydroquinolin-6-yl)thiophene-2-carboximidamide] | > 100 µM | 52.6 µM | 5.8 µM | 9.1 | 
CC(CN1CCCc2cc(NC(=N)c3cccs3)ccc21)N1CCCC1 (stereo not drawn) [Example 16, N-(1-(2-(pyrrolidin-1-yl)propyl)-1,2,3,4-tetrahydroquinolin-6-yl)thiophene-2-carboximidamide] | 19.4 µM | 33.7 µM | 0.7 µM | 48.1 | 
CC1C(=O)N(C2CCN(C)CC2)c2ccc(NC(=N)c3cccs3)cc21 (stereo not drawn) [Example 17, N-(3-Methyl-1-(1-methylpiperidin-4-yl)-2-oxoindolin-5-yl)thiophene-2-carboximidamide] |  |  |  |  | IC50 ([1]; heNOS IC50): 155 µM; IC50 ([2]; hiNOS IC50): 57 µM; Selectivity eNOS/nNOS [3]: 31; IC50 ([3]; hnNOS IC50): 4.9 µM
CN1CCC(N2CCCc3cc(NC(=N)c4cccs4)ccc32)CC1 [Example 18, N-(1-(1-methylpiperidin-4-yl)-1,2,3,4-tetrahydroquinolin-6-yl)thiophene-2-carboximidamide] |  |  |  |  | IC50 ([1]; heNOS IC50): 50 µM; IC50 ([2]; hiNOS IC50): > 100 µM; Selectivity eNOS/nNOS [3]: 5.7; IC50 ([3]; hnNOS IC50): 8.8 µM
CN1CCC(N2C(=O)CCc3cc(NC(=N)c4cccs4)ccc32)CC1 [Example 22, N-(1-(1-Methylpiperidin-4-yl)-2-oxo-1,2,3,4-tetrahydroquinolin-6-yl)thiophene-2-carboximidamide] |  |  |  |  | IC50 ([1]; heNOS IC50): 151 µM; IC50 ([2]; hiNOS IC50): > 100 µM; Selectivity eNOS/nNOS [3]: 87.8; IC50 ([3]; hnNOS IC50): 1.72 µM
CN(C)CCN1C(=O)CCCc2cc(NC(=N)c3cccs3)ccc21 [Example 25, N-(1-(2-(Dimethylamino)ethyl)-2-oxo-2,3,4,5-tetrahydro-1H-benzo[b]azepin-7-yl)thiophene-2-carboximidamide] | > 100 µM | 151 µM | 12.3 µM | 12.3 | 
N=C(Nc1ccc2c(c1)CCCC(=O)N2CCN1CCCC1)c1cccs1 [Example 26, N-(2-Oxo-1-(2-(pyrrolidin-1-yl)ethyl)-2,3,4,5-tetrahydro-1H-benzo[b]azepin-7-yl)thiophene-2-carboximidamide] | > 100 µM | 80.1 µM | 9.91 µM | 8.1 | 
CN(C)CCN1C(=O)CCCc2cccc(NC(=N)c3cccs3)c21 [Example 33, N-(1-(2-(Dimethylamino)ethyl)-2-oxo-2,3,4,5-tetrahydro-1H-benzo[b]azepin-9-yl)thiophene-2-carboximidamide] | > 100 µM | 193 µM | 2.2 µM | 90 | 

Compound | IC50 [2, 4] | IC50 [1, 5] | IC50 [3, 6] | Selectivity eNOS/nNOS [3, 7] | further results
CNCCN1C(=O)CCc2cc(NC(=N)c3cccs3)ccc21 [Example 34, N-(1-(2-(Methylamino)ethyl)-2-oxo-1,2,3,4-tetrahydroquinolin-6-yl)thiophene-2-carboximidamide] | 1.28 µM | 45.1 µM | 0.39 µM | 115 | 
CNCCN1CCCCc2cc(NC(=N)c3cccs3)ccc21 [Example 36, N-(1-(2-(Methylamino)ethyl)-2,3,4,5-tetrahydro-1H-benzo[b]azepin-7-yl)thiophene-2-carboximidamide] |  |  | 0.38 µM |  | IC50 ([1]; read-out: heNOS IC50): 47.1 µM
CN1CCCC1CCN1CCCCc2cc(NC(=N)c3cccs3)ccc21 (stereo not drawn) [Example 45, N-(1-(2-(1-Methylpyrrolidin-2-yl)ethyl)-2,3,4,5-tetrahydro-1H-benzo[b]azepin-7-yl)thiophene-2-carboximidamide] |  |  | 1.8 µM |  | IC50 ([1]; read-out: heNOS IC50): 30.8 µM
CN1CCC(N2CCCCc3cc(NC(=N)c4cccs4)ccc32)C1 (stereo not drawn) [Example 46, N-(1-(1-Methylpyrrolidin-3-yl)-2,3,4,5-tetrahydro-1H-benzo[b]azepin-7-yl)thiophene-2-carboximidamide] |  |  |  |  | IC50 ([1]; read-out: heNOS IC50): 60.5 µM; IC50 ([3]; read-out: hnNOS IC50): 0.08 µM
N=C(Nc1ccc2c(c1)CCN2C1CCNC1)c1cccs1 (stereo not drawn) [Example 49, N-(1-(Pyrrolidin-3-yl)indolin-5-yl)thiophene-2-carboximidamide] |  | 5.45 µM | 0.08 µM |  | 
CN1CCC(N2CCc3cc(NC(=N)c4cccs4)ccc32)C1 (stereo not drawn) [Example 50, N-(1-(1-Methylpyrrolidin-3-yl)indolin-5-yl)thiophene-2-carboximidamide] |  | 21.2 µM | 0.43 µM |  | 
CCN(C)CCN1CCCc2cc(NC(=N)c3cccs3)ccc21 [Example 51, N-(1-(2-(ethyl(methyl)amino)ethyl)-1,2,3,4-tetrahydroquinolin-6-yl)thiophene-2-carboximidamide] |  |  | 0.09 µM |  | IC50 ([1]; read-out: heNOS IC50): 33.3 µM; Selectivity eNOS/nNOS [3]: 370
CNCCN1CCCc2cc(NC(=N)c3cccs3)cc(F)c21.Cl.Cl [Example 52, N-(8-fluoro-1-(2-(methylamino)ethyl)-1,2,3,4-tetrahydroquinolin-6-yl)thiophene-2-carboximidamide dihydrochloride] |  | 13.5 µM | 0.3 µM | 45 | 
CCN(CC)CCN1CCCc2cc(NC(=N)c3cccs3)ccc21 [Example 53, N-(1-(2-(diethylamino)ethyl)-1,2,3,4-tetrahydroquinolin-6-yl)thiophene-2-carboximidamide] |  |  | 0.25 µM |  | 
CNCCCN1CCCc2cc(NC(=N)c3cccs3)ccc21 [Example 63, N-(1-(3-(methylamino)propyl)-2,3,4-tetrahydroquinolin-6-yl)thiophene-2-carboximidamide] |  |  | 0.235 µM |  | IC50 ([1]; read-out: heNOS IC50): 22.5 µM
N=C(Nc1ccc2c(c1)CCCN2CCN1CCOCC1)c1cccs1 [Example 64, N-(1-(2-morpholinoethyl)-1,2,3,4-tetrahydroquinolin-6-yl)thiophene-2-carboximidamide] |  | 82.5 µM | 0.68 µM | 121 | 
N=C(Nc1ccc2c(c1)CCN2CCN1CCCC1)c1cccs1 [Example 67, N-(1-(2-(Pyrrolidin-1-yl)ethyl)indolin-5-yl)thiophene-2-carboximidamide] |  | 26.9 µM | 0.092 µM | 292 | 
CN(C)CCN1CCc2cc(NC(=N)c3cccs3)ccc21 [Example 68, N-(1-(2-(Dimethylamino)ethyl)indolin-5-yl)thiophene-2-carboximidamide] |  | 12.9 µM | 0.041 µM | 316 | 
CN(CCO)CCCN1CCCc2cc(NC(=N)c3cccs3)ccc21 [Example 69, N-(1-(3-((2-Hydroxyethyl)(methyl)amino)propyl)-1,2,3,4-tetrahydroquinolin-6-yl)thiophene-2-carboximidamide] |  | 39.9 µM | 0.078 µM | 511 | 
CNC1CCC(N2CCc3cc(NC(=N)c4cccs4)ccc32)CC1 (stereo not drawn) [Example 70, N-(1-(4-(Methylamino)cyclohexyl)indolin-5-yl)thiophene-2-carboximidamide] |  | 17.9 µM | 0.21 µM | 86.5 | 
CNC1CCC(N2CCc3cc(NC(=N)c4cccs4)ccc32)CC1 (stereo not drawn) [Example 71, N-(1-(4-(Methylamino)cyclohexyl)indolin-5-yl)thiophene-2-carboximidamide] |  | 34.1 µM | 0.105 µM |  | 
